In brackets after ≈: the same amount, converted by molar mass.
How the values were obtained:
Adult Stablefly = experiment: Activity against adult stablefly (in vitro); format: in vivo; conditions: Stomoxys calcitrans
Source text: (§1) Tables VII and VIII summarize in vitro studies using compounds of the present invention against members of the insect order Diptera.

neonate tobacco budworm = experiment: LD50 against neonate tobacco budworm; format: in vivo; conditions: Heliothis virescens; neonate larvae; mean of two tests; mortality evaluated at 24 and 48 hours
Procedure: The Formula 2 compounds were evaluated in the following assay to determine the LD50 against neonate tobacco budworm (Heliothis virescens). A petri dish (100 mm ×20 mm) is inverted and the lid lined with a #1 qualitative filter paper. Ten neonate larvae are placed in each dish and a 1 ml test solution is pipetted onto the insects. The petri dish bottom is then placed on the lid to contain the larvae. At 1 hr. after treatment, a small piece of Heliothis diet (modified slurry, Southland Products, Lake Village, Ariz.) is added to each dish. The mortality is evaluated at 24 and 48 hours. The tests were run in triplicate.

Aster Leafhopper = experiment: Mite/insect screen, Aster Leafhopper (ALH); format: in vivo; conditions: Macrosteles fascifrons, 24 hr, mean of single replicate tests
Procedure: (§2) The Formula 2 compounds were tested for miticidal and insecticidal activity in the following mite/insect screen. Each test compound was formulated by dissolving the compound in an acetone-alcohol (1:1) mixture containing 23 g of TOXIMUL R (sulfonate/nonionic emulsifier blend) and 13 g of TOXIMUL S (sulfonate/nonionic emulsifier blend) per liter. These mixtures were then diluted with water to give the indicated concentrations.
(§3) Two-spotted spider mites and cotton aphids were introduced on squash cotyledons and allowed to establish on both leaf surfaces. The leaves were then sprayed with 5 ml of test solutions using a DeVilbiss atomizing sprayer at 10 psi. Both surfaces of the leaves were covered until run off and then allowed to dry for one hour. After standard exposure periods percent mortality was evaluated. Additional insects were evaluated using similar formulations and evaluation procedures. The results are reported in Table V. The following abbreviations are used: […]

German Cockroach = experiment: Mite/insect screen, German Cockroach (GECR); format: in vivo; conditions: Blattella germanica, mean of single replicate tests
Procedure: as §2, §3

Blowfly Larvae = experiment: Activity against blowfly larvae (in vitro); format: in vivo
Source text: as §1

Rootknqt Nemat.ode = experiment: Mite/insect screen, Rootknot Nematode (NEM); format: in vivo, Meliiodyne spp.; conditions: 264 h, 11 day, mean of single replicate tests
Procedure: as §2, §3

Beet Armyworm = experiment: Mite/insect screen, Beet Armyworm (BAW); format: in vivo, Spodoptera exiqua; conditions: Spodoptera exigua, 144 h, 6 day, mean of single replicate tests
Procedure: as §2, §3

Cotton Aphid = experiment: Mite/insect screen, Cotton Aphid (CA); format: in vivo, Aphis gossypii Glover; conditions: Aphis gossypii, 4-5 day, mean of single replicate tests
Procedure: as §2, §3

Tobacco Budworm = experiment: Mite/insect screen, Tobacco Budworm (TBW); format: in vivo; conditions: Heliothis virescens, 144 h, 6 day, mean of single replicate tests
Procedure: as §2, §3

Southern Corn Rootworm = experiment: Mite/insect screen, Southern Corn Rootworm (SCRW); format: in vivo, Diabrotica undecimpunctata howardi; conditions: 264 h, 11 day, mean of single replicate tests
Procedure: as §2, §3

Two-spotted Spider Mite = experiment: Mite/insect screen, Two-spotted Spider Mite (TSSM); format: in vivo; conditions: Tetranychus urticae, 4-5 day, mean of single replicate tests
Procedure: as §2, §3

CC[C@H]1CCC[C@H](O[C@H]2CC[C@H](NC)[C@@H](C)O2)[C@@H](C)C(=O)C2=C[C@@H]3[C@@H](C=C[C@@H]4C[C@@H](O[C@@H]5O[C@@H](C)[C@H](OC)[C@@H](OC)[C@H]5O)C[C@@H]34)[C@@H]2CC(=O)O1 [A83543R]
mortality at 5 ppm (Adult Stablefly; 24 h): 70% | mortality at 10 ppm (Adult Stablefly; 24 h): 90% | mortality at 5 ppm (Adult Stablefly; 48 h): 100% | mortality at 10 ppm (Adult Stablefly; 48 h): 100% | LC50 (neonate tobacco budworm): 14.5 µg/mL (≈ 20.6 µM) | inhibition at 50 ppm (Aster Leafhopper): 0% | inhibition at 400 ppm (Aster Leafhopper): 0% | inhibition at 50 ppm (German Cockroach; 168 h, 7 day): 0% | inhibition at 400 ppm (German Cockroach; 168 h, 7 day): 0% | inhibition at 50 ppm (German Cockroach; 504 h, 21 day): 20% | inhibition at 400 ppm (German Cockroach; 504 h, 21 day): 0% | % mortality (Blowfly Larvae; 5 ppm, 24 hrs.): 90% | % mortality (Blowfly Larvae; 5 ppm, 48 hrs.): 100% | % mortality (Blowfly Larvae; 10 ppm, 24 hrs.): 100% | % mortality (Blowfly Larvae; 10 ppm, 48 hrs.): 100% | inhibition at 400 ppm (Rootknqt Nemat.ode): 0% | inhibition at 50 ppm (Beet Armyworm): 0% | inhibition at 400 ppm (Beet Armyworm): 0% | inhibition at 50 ppm (Cotton Aphid): 0% | inhibition at 400 ppm (Cotton Aphid): 0% | inhibition at 21 ppm (Tobacco Budworm): 63% | inhibition at 64 ppm (Tobacco Budworm): 88% | inhibition at 400 ppm (Southern Corn Rootworm): 0% | inhibition at 50 ppm (Two-spotted Spider Mite): 85% | inhibition at 400 ppm (Two-spotted Spider Mite): 90%

CC[C@H]1CCC[C@H](O[C@H]2CC[C@H](N(C)C)[C@@H](C)O2)[C@@H](C)C(=O)C2=C[C@@H]3[C@@H](C=C[C@@H]4C[C@@H](O[C@@H]5O[C@@H](C)[C@H](OC)[C@@H](O)[C@H]5O)C[C@@H]34)[C@@H]2CC(=O)O1 [A83543T]
mortality at 50 ppm (Adult Stablefly; 24 h): 60% | mortality at 100 ppm (Adult Stablefly; 24 h): 80% | mortality at 50 ppm (Adult Stablefly; 48 h): 70% | mortality at 100 ppm (Adult Stablefly; 48 h): 90% | LC50 (neonate tobacco budworm): > 64 µg/mL | inhibition at 50 ppm (Aster Leafhopper): 20% | inhibition at 400 ppm (Aster Leafhopper): 100% | inhibition at 50 ppm (German Cockroach; 168 h, 7 day): 0% | inhibition at 400 ppm (German Cockroach; 168 h, 7 day): 0% | inhibition at 50 ppm (German Cockroach; 504 h, 21 day): 0% | inhibition at 400 ppm (German Cockroach; 504 h, 21 day): 0% | % mortality (Blowfly Larvae; 50 ppm, 24 hrs.): 0% | % mortality (Blowfly Larvae; 50 ppm, 48 hrs.): 0% | % mortality (Blowfly Larvae; 100 ppm, 24 hrs.): 0% | % mortality (Blowfly Larvae; 100 ppm, 48 hrs.): 0% | inhibition at 400 ppm (Rootknqt Nemat.ode): 0% | inhibition at 50 ppm (Beet Armyworm): 0% | inhibition at 400 ppm (Beet Armyworm): 0% | inhibition at 50 ppm (Cotton Aphid): 0% | inhibition at 400 ppm (Cotton Aphid): 0% | inhibition at 21 ppm (Tobacco Budworm): 0% | inhibition at 64 ppm (Tobacco Budworm): 0% | inhibition at 400 ppm (Southern Corn Rootworm): 0% | inhibition at 50 ppm (Two-spotted Spider Mite): 0% | inhibition at 400 ppm (Two-spotted Spider Mite): 0%

CO[C@@H]1[C@@H](OC)[C@@H](O)[C@H](O[C@H]2C[C@H]3[C@@H]4C=C5C(=O)[C@H](C)[C@@H](O[C@H]6CC[C@H](N(C)C)[C@@H](C)O6)CCC[C@H](C)OC(=O)C[C@H]5[C@@H]4C=C[C@@H]3C2)O[C@H]1C [A83543S]
mortality at 50 ppm (Adult Stablefly; 24 h): 100% | mortality at 100 ppm (Adult Stablefly; 24 h): 90% | mortality at 50 ppm (Adult Stablefly; 48 h): 100% | mortality at 100 ppm (Adult Stablefly; 48 h): 100% | LC50 (neonate tobacco budworm): 53 µg/mL (≈ 75.3 µM) | inhibition at 50 ppm (Aster Leafhopper): 60% | inhibition at 400 ppm (Aster Leafhopper): 100% | inhibition at 50 ppm (German Cockroach; 168 h, 7 day): 0% | inhibition at 400 ppm (German Cockroach; 168 h, 7 day): 0% | inhibition at 50 ppm (German Cockroach; 504 h, 21 day): 0% | inhibition at 400 ppm (German Cockroach; 504 h, 21 day): 20% | % mortality (Blowfly Larvae; 5 ppm, 24 hrs.): 0% | % mortality (Blowfly Larvae; 5 ppm, 48 hrs.): 0% | % mortality (Blowfly Larvae; 10 ppm, 24 hrs.): 60% | % mortality (Blowfly Larvae; 10 ppm, 48 hrs.): 60% | inhibition at 400 ppm (Rootknqt Nemat.ode): 0% | inhibition at 50 ppm (Beet Armyworm): 100% | inhibition at 400 ppm (Beet Armyworm): 100% | inhibition at 50 ppm (Cotton Aphid): 0% | inhibition at 400 ppm (Cotton Aphid): 0% | inhibition at 21 ppm (Tobacco Budworm): 26% | inhibition at 64 ppm (Tobacco Budworm): 53% | inhibition at 400 ppm (Southern Corn Rootworm): 0% | inhibition at 50 ppm (Two-spotted Spider Mite): 0% | inhibition at 400 ppm (Two-spotted Spider Mite): 0%

CC[C@H]1CCC[C@H](O[C@H]2CC[C@H](N(C)C)[C@@H](C)O2)[C@@H](C)C(=O)C2=C[C@@H]3[C@@H](C=C(C)[C@@H]4C[C@@H](O[C@@H]5O[C@@H](C)[C@H](OC)[C@@H](OC)[C@H]5O)C[C@@H]34)[C@@H]2CC(=O)O1 [A83543Q]
mortality at 5 ppm (Adult Stablefly; 24 h): 50% | mortality at 10 ppm (Adult Stablefly; 24 h): 90% | mortality at 5 ppm (Adult Stablefly; 48 h): 90% | mortality at 10 ppm (Adult Stablefly; 48 h): 100% | LC50 (neonate tobacco budworm): 0.39 µg/mL (≈ 0.533 µM) | inhibition at 50 ppm (Aster Leafhopper): 100% | inhibition at 400 ppm (Aster Leafhopper): 100% | inhibition at 50 ppm (German Cockroach; 168 h, 7 day): 0% | inhibition at 400 ppm (German Cockroach; 168 h, 7 day): 0% | inhibition at 50 ppm (German Cockroach; 504 h, 21 day): 0% | inhibition at 400 ppm (German Cockroach; 504 h, 21 day): 0% | % mortality (Blowfly Larvae; 5 ppm, 24 hrs.): 90% | % mortality (Blowfly Larvae; 5 ppm, 48 hrs.): 90% | % mortality (Blowfly Larvae; 10 ppm, 24 hrs.): 100% | % mortality (Blowfly Larvae; 10 ppm, 48 hrs.): 100% | inhibition at 400 ppm (Rootknqt Nemat.ode): 0% | inhibition at 50 ppm (Beet Armyworm): 100% | inhibition at 400 ppm (Beet Armyworm): 100% | inhibition at 50 ppm (Cotton Aphid): 0% | inhibition at 400 ppm (Cotton Aphid): 0% | inhibition at 21 ppm (Tobacco Budworm): 100% | inhibition at 64 ppm (Tobacco Budworm): 100% | inhibition at 400 ppm (Southern Corn Rootworm): 0% | inhibition at 50 ppm (Two-spotted Spider Mite): 70% | inhibition at 400 ppm (Two-spotted Spider Mite): 100%

From patent US5767253A, “A83543 Compounds; factors Q, R, S, and T” (priority 1995, dated 1998)
